Results as given in PubChem BioAssay AID1918998 (Molecular Pharmacology Branch, DTP, NCI, 2023).
“And” between values parts separate entries of the source, which are not always exact repeats. Equal entries are not always repeated.

System: 521955-158-R2-J5-PDC complex spheroid growth
Test: Anticancer human tumor 521955-158-R2-J5-PDC patient-derived pancreatic carcinoma cell line growth inhibition [AhR]
Conditions: for viability, T/C: stronger effect = lower value
In short: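 Agents were dosed in half-log steps down from roughly clinical Cmax, or from 10 microM where Cmax was unknown, alone and with AhR antagonists. Read-out: percent test/control growth of tumor spheroids containing HUVEC and MSC stromal cells.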

[1] = curve of first compound, second compound 0.1 µM
[2] = curve of first compound, second compound 0.316 µM
[3] = curve of first compound, second compound 1 µM
[4] = curve of first compound, second compound 3.16 µM
[5] = curve of first compound, second compound 10 µM
[6] = second compound 0.1 µM, first compound 0.0316 µM
[7] = second compound 0.1 µM, first compound 0.1 µM
[8] = second compound 0.1 µM, first compound 0.316 µM
[9] = second compound 0.1 µM, first compound 1 µM
[10] = second compound 0.1 µM, first compound 3.16 µM
[11] = second compound 0.1 µM, first compound 10 µM
[12] = second compound 0.316 µM, first compound 0.0316 µM
[13] = second compound 0.316 µM, first compound 0.1 µM
[14] = second compound 0.316 µM, first compound 0.316 µM
[15] = second compound 0.316 µM, first compound 1 µM
[16] = second compound 0.316 µM, first compound 3.16 µM
[17] = second compound 0.316 µM, first compound 10 µM
[18] = second compound 1 µM, first compound 0.0316 µM
[19] = second compound 1 µM, first compound 0.1 µM
[20] = second compound 1 µM, first compound 0.316 µM
[21] = second compound 1 µM, first compound 1 µM
[22] = second compound 1 µM, first compound 3.16 µM
[23] = second compound 1 µM, first compound 10 µM
[24] = second compound 3.16 µM, first compound 0.0316 µM
[25] = second compound 3.16 µM, first compound 0.1 µM
[26] = second compound 3.16 µM, first compound 0.316 µM
[27] = second compound 3.16 µM, first compound 1 µM
[28] = second compound 3.16 µM, first compound 3.16 µM
[29] = second compound 3.16 µM, first compound 10 µM
[30] = second compound 10 µM, first compound 0.0316 µM
[31] = second compound 10 µM, first compound 0.1 µM
[32] = second compound 10 µM, first compound 0.316 µM
[33] = second compound 10 µM, first compound 1 µM
[34] = second compound 10 µM, first compound 3.16 µM
[35] = second compound 10 µM, first compound 10 µM
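For viability, T/C in this document: spheroids mix tumor cells with HUVEC endothelium and human MSC stroma; luminescence taken as viability surrogate after a week of drug exposure.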

## CC[C@@]1(O)C(=O)OCc2c1cc1n(c2=O)Cc2cc3c(CN(C)C)c(O)ccc3nc2-1
Compound 0.000316 µM
  viability, T/C: 93.2% and 80.6% and 77.3%
Compound 0.001 µM
  viability, T/C: 90.4% and 95% and 67.7%
Compound 0.00316 µM
  viability, T/C: 80.1% and 84.2% and 84.3%
Compound 0.01 µM
  viability, T/C: 86.6% and 65.1% and 63.1%
Compound 0.0316 µM
  viability, T/C: 62.3% and 43.2% and 34.2%
Compound 0.1 µM
  viability, T/C: 33.1% and 22.1% and 23.6%
Curve of compound
  IC50: 52.7 nM and 21.7 nM and 17.1 nM

## O=C(C=Cn1cnc(-c2cc(C(F)(F)F)cc(C(F)(F)F)c2)n1)NNc1cnccn1 + Cc1ccccc1N=Nc1ccc(NC(=O)c2ccnn2C)c(C)c1
[1]
  IC50: 40.1 nM
[2]
  IC50: < 9.49 nM
[3]
  IC50: 18.5 nM
[4]
  IC50: < 9.49 nM
[5]
  IC50: 140 nM
Second compound 0.1 µM, first compound 0.00949 µM
  viability, T/C: 59%
Second compound 0.1 µM, first compound 0.03 µM
  viability, T/C: 50.4%
Second compound 0.1 µM, first compound 0.0949 µM
  viability, T/C: 41.2%
Second compound 0.1 µM, first compound 0.3 µM
  viability, T/C: 39.5%
Second compound 0.1 µM, first compound 0.949 µM
  viability, T/C: 40.2%
Second compound 0.1 µM, first compound 3 µM
  viability, T/C: 21.5%
Second compound 0.316 µM, first compound 0.00949 µM
  viability, T/C: 54.8%
Second compound 0.316 µM, first compound 0.03 µM
  viability, T/C: 43.1%
Second compound 0.316 µM, first compound 0.0949 µM
  viability, T/C: 39.3%
Second compound 0.316 µM, first compound 0.3 µM
  viability, T/C: 46.1%
Second compound 0.316 µM, first compound 0.949 µM
  viability, T/C: 40.8%
Second compound 0.316 µM, first compound 3 µM
  viability, T/C: 24.6%
Second compound 1 µM, first compound 0.00949 µM
  viability, T/C: 55.8%
Second compound 1 µM, first compound 0.03 µM
  viability, T/C: 42.6%
Second compound 1 µM, first compound 0.0949 µM
  viability, T/C: 45.1%
Second compound 1 µM, first compound 0.3 µM
  viability, T/C: 36.2%
Second compound 1 µM, first compound 0.949 µM
  viability, T/C: 38.4%
Second compound 1 µM, first compound 3 µM
  viability, T/C: 31.8%
Second compound 3.16 µM, first compound 0.00949 µM
  viability, T/C: 53.8%
Second compound 3.16 µM, first compound 0.03 µM
  viability, T/C: 51.4%
Second compound 3.16 µM, first compound 0.0949 µM
  viability, T/C: 47.6%
Second compound 3.16 µM, first compound 0.3 µM
  viability, T/C: 40.8%
Second compound 3.16 µM, first compound 0.949 µM
  viability, T/C: 50.2%
Second compound 3.16 µM, first compound 3 µM
  viability, T/C: 29.8%
Second compound 10 µM, first compound 0.00949 µM
  viability, T/C: 91%
Second compound 10 µM, first compound 0.03 µM
  viability, T/C: 66.2%
Second compound 10 µM, first compound 0.0949 µM
  viability, T/C: 47.6%
Second compound 10 µM, first compound 0.3 µM
  viability, T/C: 53.4%
Second compound 10 µM, first compound 0.949 µM
  viability, T/C: 38.2%
Second compound 10 µM, first compound 3 µM
  viability, T/C: 32.9%

## CC(C)c1c(-c2ccccc2)nc2c(C#N)c[nH]n2c1=O + CC(CO)NC(=O)c1cc(-c2ccc(Cl)cc2)nn(-c2cnn(C)c2)c1=O
[1]
  IC50: > 10000 nM
[2]
  IC50: > 10000 nM
[3]
  IC50: > 10000 nM
[4]
  IC50: > 10000 nM
[5]
  IC50: > 10000 nM
[6]
  viability, T/C: 91%
[7]
  viability, T/C: 83.6%
[8]
  viability, T/C: 89.4%
[9]
  viability, T/C: 91.4%
[10]
  viability, T/C: 66.3%
[11]
  viability, T/C: 78.2%
[12]
  viability, T/C: 80.1%
[13]
  viability, T/C: 103%
[14]
  viability, T/C: 75.7%
[15]
  viability, T/C: 86.1%
[16]
  viability, T/C: 73.3%
[17]
  viability, T/C: 88.5%
[18]
  viability, T/C: 82.1%
[19]
  viability, T/C: 89.4%
[20]
  viability, T/C: 93.5%
[21]
  viability, T/C: 94.2%
[22]
  viability, T/C: 70.7%
[23]
  viability, T/C: 51.9%
[24]
  viability, T/C: 98.5%
[25]
  viability, T/C: 93.7%
[26]
  viability, T/C: 97%
[27]
  viability, T/C: 96.5%
[28]
  viability, T/C: 72%
[29]
  viability, T/C: 70%
[30]
  viability, T/C: 84.5%
[31]
  viability, T/C: 81.2%
[32]
  viability, T/C: 86.4%
[33]
  viability, T/C: 71.8%
[34]
  viability, T/C: 54.6%
[35]
  viability, T/C: 54.7%

## COc1ccc([C@@H](O)c2cc(-c3ncnc4cc(N5CCOCC5)ccc34)c(F)cc2Cl)nn1
Compound 0.0316 µM
  viability, T/C: 103% and 74.5% and 83%
Compound 0.1 µM
  viability, T/C: 98.5% and 84.4% and 87.8%
Compound 0.316 µM
  viability, T/C: 104% and 83.6% and 80.7%
Compound 1 µM
  viability, T/C: 100% and 66.2% and 81.5%
Compound 3.16 µM
  viability, T/C: 75.2% and 63.6% and 64.8%
Compound 10 µM
  viability, T/C: 52% and 43.6% and 40.8%
Curve of compound
  IC50: > 10000 nM and 6700 nM and 6430 nM

## Nc1ccccc1NC(=O)c1ccc(CNC(=O)OCc2cccnc2)cc1 + Cc1ccccc1N=Nc1ccc(NC(=O)c2ccnn2C)c(C)c1
[1]
  IC50: 5030 nM
[2]
  IC50: 5290 nM
[3]
  IC50: 5680 nM
[4]
  IC50: 6930 nM
[5]
  IC50: 7200 nM
[6]
  viability, T/C: 121%
[7]
  viability, T/C: 129%
[8]
  viability, T/C: 130%
[9]
  viability, T/C: 104%
[10]
  viability, T/C: 64.6%
[11]
  viability, T/C: 29.6%
[12]
  viability, T/C: 95.2%
[13]
  viability, T/C: 137%
[14]
  viability, T/C: 147%
[15]
  viability, T/C: 109%
[16]
  viability, T/C: 69.8%
[17]
  viability, T/C: 26.4%
[18]
  viability, T/C: 135%
[19]
  viability, T/C: 154%
[20]
  viability, T/C: 155%
[21]
  viability, T/C: 116%
[22]
  viability, T/C: 67.5%
[23]
  viability, T/C: 34.4%
[24]
  viability, T/C: 141%
[25]
  viability, T/C: 164%
[26]
  viability, T/C: 154%
[27]
  viability, T/C: 131%
[28]
  viability, T/C: 71.4%
[29]
  viability, T/C: 40%
[30]
  viability, T/C: 165%
[31]
  viability, T/C: 168%
[32]
  viability, T/C: 152%
[33]
  viability, T/C: 129%
[34]
  viability, T/C: 78.1%
[35]
  viability, T/C: 38.7%

## CC[C@@]1(O)C(=O)OCc2c1cc1n(c2=O)Cc2cc3c(CN(C)C)c(O)ccc3nc2-1 + Cc1cncc(-c2nc(NCCc3c[nH]c4ccccc34)c3ncn(C(C)C)c3n2)c1
[1]
  IC50: 54.2 nM
[2]
  IC50: 43.7 nM
[3]
  IC50: 43.1 nM
[4]
  IC50: 58.3 nM
[5]
  IC50: > 100 nM
Second compound 0.1 µM, first compound 0.000316 µM
  viability, T/C: 95.1%
Second compound 0.1 µM, first compound 0.001 µM
  viability, T/C: 95.6%
Second compound 0.1 µM, first compound 0.00316 µM
  viability, T/C: 101%
Second compound 0.1 µM, first compound 0.01 µM
  viability, T/C: 76.8%
[6]
  viability, T/C: 72.3%
[7]
  viability, T/C: 28.1%
Second compound 0.316 µM, first compound 0.000316 µM
  viability, T/C: 113%
Second compound 0.316 µM, first compound 0.001 µM
  viability, T/C: 105%
Second compound 0.316 µM, first compound 0.00316 µM
  viability, T/C: 109%
Second compound 0.316 µM, first compound 0.01 µM
  viability, T/C: 78.8%
[12]
  viability, T/C: 61.6%
[13]
  viability, T/C: 27.1%
Second compound 1 µM, first compound 0.000316 µM
  viability, T/C: 117%
Second compound 1 µM, first compound 0.001 µM
  viability, T/C: 133%
Second compound 1 µM, first compound 0.00316 µM
  viability, T/C: 100%
Second compound 1 µM, first compound 0.01 µM
  viability, T/C: 99%
[18]
  viability, T/C: 56.9%
[19]
  viability, T/C: 25.9%
Second compound 3.16 µM, first compound 0.000316 µM
  viability, T/C: 155%
Second compound 3.16 µM, first compound 0.001 µM
  viability, T/C: 141%
Second compound 3.16 µM, first compound 0.00316 µM
  viability, T/C: 143%
Second compound 3.16 µM, first compound 0.01 µM
  viability, T/C: 111%
[24]
  viability, T/C: 72.6%
[25]
  viability, T/C: 30.5%
Second compound 10 µM, first compound 0.000316 µM
  viability, T/C: 214%
Second compound 10 µM, first compound 0.001 µM
  viability, T/C: 158%
Second compound 10 µM, first compound 0.00316 µM
  viability, T/C: 144%
Second compound 10 µM, first compound 0.01 µM
  viability, T/C: 94.5%
[30]
  viability, T/C: 103%
[31]
  viability, T/C: 38.5%

## CCN(c1cc(-c2ccc(CN3CCOCC3)cc2)cc(C(=O)NCc2c(C)cc(C)[nH]c2=O)c1C)C1CCOCC1
Compound 0.00949 µM
  viability, T/C: 104% and 116% and 106%
Compound 0.03 µM
  viability, T/C: 111% (2×) and 113%
Compound 0.0949 µM
  viability, T/C: 93.7% and 98.9% and 87%
Compound 0.3 µM
  viability, T/C: 97.9% and 94.6% and 81.7%
Compound 0.949 µM
  viability, T/C: 99.9% and 70.8% and 81.8%
Compound 3 µM
  viability, T/C: 96.3% and 84.7% and 88%
Curve of compound
  IC50: > 3000 nM
